Test results: ChEMBL document CHEMBL3885861, “Open TG-GATES”

Organism: Rattus norvegicus
Assay: Open TG-GATES - Regimen: Single
Assay type: toxicity, organism-based, Sprague-Dawley
Parameters: regimen Single, gender Male, age 6 weeks
Details: in vivo, po, 300 mg/kg, route gavage, dose level Middle; for APTT / Bas / Eos / Fbg / Hb / Ht / Lym / MCH / MCHC / MCV / Mono / Neu / PT / Plat / RBC / Ret / WBC: tissue Blood; for KIDNEY_L / KIDNEY_R / KIDNEY_TOTAL: tissue Kidney; for LIVER: tissue Liver; for ALP / ALT / AST / CRE / DBIL / GLC / IP / K / LDH / Na / PL / RALB / TBIL / TC / TP / gamma-GTP: tissue Plasma

For Clc1ccccc1CN1CCc2sccc2C1 [TICLOPIDINE], the TERMINAL_BW (3 h) was 211.8 g, the APTT (3 h) was 19.5 s and the Bas (3 h) was 0%. It also gave an Eos (3 h) of 1%, a Fbg (3 h) of 220.8 mg/dL and a Hb (3 h) of 13.1 g/dL. It also gave a Ht (3 h) of 37.1%, a Lym (3 h) of 73.4% and an MCH (3 h) of 21.8 pg. For the same compound, the MCHC (3 h) was 35.3%, the MCV (3 h) was 61.6 fL and the Mono (3 h) was 2.8%. For the same compound, the Neu (3 h) was 21.6%, the PT (3 h) was 12.2 s and the Plat (3 h) was 124.1 x10_4/uL. The RBC (3 h) was 602.2 x10_4/ul, the Ret (3 h) was 8.4% and the WBC (3 h) was 73.9 x10_2/uL. It also gave a KIDNEY_L (3 h) of 0.9 g, a KIDNEY_R (3 h) of 1 g and a KIDNEY_TOTAL (3 h) of 1.9 g. It also gave an LIVER (3 h) of 9 g, an ALP (3 h) of 999 IU/L and an ALT (3 h) of 36.2 IU/L. It also gave an AST (3 h) of 74 IU/L, a CRE (3 h) of 0.4 mg/dL and a DBIL (3 h) of 0.078 mg/dL. For the same compound, the GLC (3 h) was 194.2 mg/dL, the IP (3 h) was 10.5 mg/dL and the K (3 h) was 3.7 meq/L. The LDH (3 h) was 161.4 IU/L, the Na (3 h) was 141 meq/L and the PL (3 h) was 129.2 mg/dL. It also gave an RALB (3 h) of 3.3 g/dL, a TBIL (3 h) of 0.1 mg/dL and a TC (3 h) of 72.6 mg/dL. It also gave a TP (3 h) of 5.4 g/dL, a gamma-GTP (3 h) of 0.8 IU/L and a TERMINAL_BW (6 h) of 209.7 g. It also gave an APTT (6 h) of 18.1 s, a Bas (6 h) of 0.2% and an Eos (6 h) of 0.8%. It also gave a Fbg (6 h) of 226.8 mg/dL, a Hb (6 h) of 13.5 g/dL and a Ht (6 h) of 39.1%. For the same compound, the Lym (6 h) was 77%, the MCH (6 h) was 21.1 pg and the MCHC (6 h) was 34.5%. It also gave an MCV (6 h) of 61.3 fL, a Mono (6 h) of 2.4% and a Neu (6 h) of 18.4%. It also gave a PT (6 h) of 12.1 s, a Plat (6 h) of 131 x10_4/uL and an RBC (6 h) of 637.6 x10_4/ul. For the same compound, the Ret (6 h) was 7.8%, the WBC (6 h) was 76.9 x10_2/uL and the KIDNEY_L (6 h) was 1 g. It also gave a KIDNEY_R (6 h) of 1 g, a KIDNEY_TOTAL (6 h) of 1.9 g and an LIVER (6 h) of 9.1 g. For the same compound, the ALP (6 h) was 909.6 IU/L, the ALT (6 h) was 34 IU/L and the AST (6 h) was 74.6 IU/L. It also gave a CRE (6 h) of 0.4 mg/dL, a DBIL (6 h) of 0.078 mg/dL and a GLC (6 h) of 192 mg/dL. For the same compound, the IP (6 h) was 10 mg/dL, the K (6 h) was 3.9 meq/L and the LDH (6 h) was 213 IU/L. It also gave a Na (6 h) of 141 meq/L, a PL (6 h) of 134 mg/dL and an RALB (6 h) of 3.4 g/dL. It also gave a TBIL (6 h) of 0.1 mg/dL, a TC (6 h) of 76.2 mg/dL and a TP (6 h) of 5.5 g/dL. The gamma-GTP (6 h) was 1.2 IU/L, the TERMINAL_BW (9 h) was 208.6 g and the APTT (9 h) was 18.8 s. The Bas (9 h) was 0.2%, the Eos (9 h) was 1% and the Fbg (9 h) was 226.8 mg/dL. It also gave a Hb (9 h) of 13.3 g/dL, a Ht (9 h) of 37.6% and a Lym (9 h) of 76%. For the same compound, the MCH (9 h) was 21.4 pg, the MCHC (9 h) was 35.3% and the MCV (9 h) was 60.7 fL. It also gave a Mono (9 h) of 2%, a Neu (9 h) of 20.2% and a PT (9 h) of 12.7 s. The Plat (9 h) was 132.7 x10_4/uL, the RBC (9 h) was 621.4 x10_4/ul and the Ret (9 h) was 7.2%. For the same compound, the WBC (9 h) was 64 x10_2/uL, the KIDNEY_L (9 h) was 0.9 g and the KIDNEY_R (9 h) was 1 g. For the same compound, the KIDNEY_TOTAL (9 h) was 1.9 g, the LIVER (9 h) was 8.3 g and the ALP (9 h) was 859.4 IU/L. It also gave an ALT (9 h) of 31.2 IU/L, an AST (9 h) of 65.4 IU/L and a CRE (9 h) of 0.4 mg/dL. The DBIL (9 h) was 0.072 mg/dL, the GLC (9 h) was 197 mg/dL and the IP (9 h) was 9.8 mg/dL. It also gave a K (9 h) of 3.9 meq/L, an LDH (9 h) of 129.6 IU/L and a Na (9 h) of 142 meq/L. For the same compound, the PL (9 h) was 129 mg/dL, the RALB (9 h) was 3.3 g/dL and the TBIL (9 h) was 0.1 mg/dL. The TC (9 h) was 69.8 mg/dL, the TP (9 h) was 5.5 g/dL and the gamma-GTP (9 h) was 1.2 IU/L. The TERMINAL_BW (24 h) was 212.9 g, the APTT (24 h) was 19.8 s and the Bas (24 h) was 0.4%. It also gave an Eos (24 h) of 1%, a Fbg (24 h) of 228.2 mg/dL and a Hb (24 h) of 14.1 g/dL. For the same compound, the Ht (24 h) was 39.5%, the Lym (24 h) was 80.8% and the MCH (24 h) was 22.1 pg. It also gave an MCHC (24 h) of 35.6%, an MCV (24 h) of 62.2 fL and a Mono (24 h) of 2.4%. For the same compound, the Neu (24 h) was 14.6%, the PT (24 h) was 12.1 s and the Plat (24 h) was 128.1 x10_4/uL. The RBC (24 h) was 635.4 x10_4/ul, the Ret (24 h) was 6.1% and the WBC (24 h) was 76.1 x10_2/uL. For the same compound, the KIDNEY_L (24 h) was 1 g, the KIDNEY_R (24 h) was 1 g and the KIDNEY_TOTAL (24 h) was 2 g. The LIVER (24 h) was 9.5 g, the ALP (24 h) was 1118.8 IU/L and the ALT (24 h) was 35.2 IU/L. For the same compound, the AST (24 h) was 66.6 IU/L, the CRE (24 h) was 0.4 mg/dL and the DBIL (24 h) was 0.078 mg/dL. For the same compound, the GLC (24 h) was 182.2 mg/dL, the IP (24 h) was 8.7 mg/dL and the K (24 h) was 4 meq/L. It also gave an LDH (24 h) of 120 IU/L, a Na (24 h) of 142 meq/L and a PL (24 h) of 146.6 mg/dL. For the same compound, the RALB (24 h) was 3.5 g/dL, the TBIL (24 h) was 0.1 mg/dL and the TC (24 h) was 83.4 mg/dL. It also gave a TP (24 h) of 5.6 g/dL and a gamma-GTP (24 h) of 1 IU/L.
